From article PMC11201828, “A Novel Dimeric Short Peptide Derived from α-Defensin-Related Rattusin with Improved Antimicrobial and DNA-Binding Activities” (Biomolecules, 2024)
Values after ≈ are worked out from the molar mass of the structure shown. Positions of bridges follow the written chain, without caps; N, C: chain ends. Residues, ends and D or L forms follow the SMILES beside them. Chains are numbered I, II in the order given.

How the values were obtained:
[1] = test system: S. aureus cytoplasmic membrane; test: Membrane depolarization assay, DiSC3-(5) dye; assay type: cell-based, Staphylococcus aureus; conditions: intact S. aureus; 32 µM F2, 4 µM melittin, 16 µM buforin-2; peptide added after 300 s; Figure 2
Protocol: The cytoplasmic membrane depolarization activity of the peptides was assessed using the membrane-potential-sensitive dye DiSC3-(5), following methodologies previously described in the literature. Staphylococcus aureus was cultured in Luria–Bertani (LB) broth at 37 °C until reaching an optical density (O.D.) at 600 nm of 0.3–0.4, indicative of mid-logarithmic phase growth. The cells were then washed with a buffer containing 20 mM glucose and 5 mM HEPES, and the cell suspension was diluted to an O.D. 600 of 0.05 in the same buffer. Potassium chloride (KCl) was added to achieve a final concentration of 100 mM to equilibrate potassium ion levels. The concentrations used for each peptide in our membrane depolarization assays were based on their respective MICs: 32 µM for F2, 4 µM for Melittin, and 16 µM for Buferin-2.
Fluorescence was monitored using an F-4500 FL fluorescence spectrophotometer (Shimadzu, Kyoto, Japan) with excitation and emission wavelengths set at 622 nm and 670 nm, respectively. Melittin, known for its membrane-disrupting properties, served as a positive control, while buforin-2, which translocates across membranes without causing depolarization, acted as a negative control. Both melittin and buforin-2 were tested at concentrations twice their minimal inhibitory concentration (MIC) levels.

S. aureus cell membranes = test: SYTOX Green uptake assay; assay type: cell-based, Staphylococcus aureus; conditions: 32 µM F2, 4 µM melittin, 16 µM buforin-2, Figure 3
Protocol: The membrane permeabilization activity of the peptides was determined using the SYTOX Green uptake assay, as described previously. S. aureus was cultured in LB broth at 37 °C until it reached an optical density (O.D.) at 600 nm of 0.4, indicative of the mid-logarithmic phase. The cells were then washed and diluted to an O.D. 600 of 0.05 using 1× PBS buffer. The dye (SYTOX Green nucleic acid stain) was added to the bacterial suspension at a concentration of […], and the mixture was incubated at 4 °C for 18 h with agitation in the dark. The SYTOX Green-treated bacteria were placed in a quartz cell, where they were simultaneously exposed to the positive control melittin (2× MIC), the negative control buforin-2 (2× MIC), and the F2 dimer (2× MIC). An F-4500 FL fluorescence spectrophotometer (Shimadzu, Kyoto, Japan) was used to monitor fluorescence (excitation 485 nm, emission 520 nm).

[2] = test system: Staphylococcus epidermidis; assay type: cell-based; conditions: 24 h
Protocol: (§1) The minimal inhibitory concentrations (MICs) of the peptides were determined following the broth microdilution method recommended by the Clinical and Laboratory Standards Institute (CLSI). Briefly, bacteria in their mid-logarithmic growth phase were diluted in Mueller–Hinton broth (MHB) (Difco, Franklin Lakes, NJ, USA) and aliquoted into a 96-well microtiter plate at a density of 4 × 10^6 CFU/well. The assay included both Gram-negative bacteria (Escherichia coli, Salmonella typhimurium, and Pseudomonas aeruginosa) and Gram-positive bacteria (Bacillus subtilis, Staphylococcus aureus, and Staphylococcus epidermidis), as well as methicillin-resistant Staphylococcus aureus strains (MRSA: CCARM 3089, CCARM 3090, CCARM 3095). The samples were subjected to a two-fold serial dilution before being added to the wells, and the plate was incubated at 37 °C for 24 h. The MIC was defined as the lowest peptide concentration that prevented visible bacterial growth. All experiments were conducted in triplicate and included appropriate growth and sterility controls.

Pseudomonas aeruginosa = assay type: cell-based; conditions: 24 h
Protocol: as §1

Salmonella typhimurium = assay type: cell-based; conditions: murium, 24 h
Protocol: as §1

Escherichia coli = assay type: cell-based; conditions: 24 h
Protocol: as §1

bacterial strains = assay type: cell-based; conditions: strain not given; see Tables 1 and 2
Protocol: as §1

Staphylococcus aureus = assay type: cell-based; conditions: 24 h
Protocol: as §1

Bacillus subtilis = assay type: cell-based; conditions: 24 h
Protocol: as §1

E. coli ML-35 = test: ONPG hydrolysis assay (inner membrane permeability); assay type: cell-based, Escherichia coli; conditions: 32 µM F2, 4 µM melittin, 16 µM buforin-2, Figure 4
Protocol: The internal membrane permeability was assessed using the ONPG hydrolysis assay, as described previously. E. coli ML-35p, which constitutively expresses cytoplasmic β-galactosidase and periplasmic β-lactamase, is resistant to ampicillin and deficient in lactose permease. E. coli ML-35 was incubated in LB broth containing ampicillin at 37 °C until the optical density (O.D.) at 600 nm reached 1.0. The cells were then washed with a buffer consisting of 97% 1× PBS and 3% LB and diluted to an O.D. 600 of 0.4 in the same buffer. A mixture of 50 μL of serially diluted peptide and 20 μL of dye (ONPG, final concentration 3 mM) was added to 100 μL of the bacterial suspension in a sterilized 96-well plate. Melittin served as a positive control, while buforin-2 was used as a negative control. The hydrolysis of ONPG was measured using a PHOMO Elisa reader (Autobio, Zhengzhou, China) at 405 nm for each time period.

MRSA CCARM 3095 = assay type: cell-based, methicillin-resistant Staphylococcus aureus; conditions: CCARM 3095, 24 h
Protocol: as §1

MRSA CCARM 3089 = assay type: cell-based, methicillin-resistant Staphylococcus aureus; conditions: CCARM 3089, 24 h
Protocol: as §1

MRSA CCARM 3090 = assay type: cell-based, methicillin-resistant Staphylococcus aureus; conditions: CCARM 3090, 24 h
Protocol: as §1

plasmid DNA (pHIS2) = test: DNA-binding gel retardation assay; conditions: plasmid pHIS2 145 μg/mL, 37 °C, 1 h, 1% agarose gel; Figure 5
Protocol: We evaluated the DNA-binding ability of F2 and F2 (C4S) monomeric peptides using gel retardation experiments. The concentration of plasmid DNA (pHIS2) was fixed at 145 μg/mL. The peptide was serially diluted in a binding buffer consisting of 10 mM Tris-HCl (pH 8.0), 5% glucose, 50 μg/mL BSA, 1 mM EDTA, and 20 mM KCl. This solution was then mixed with the DNA and incubated at 37 °C for 1 h. After incubation, the DNA–peptide mixture was stained with DNA gel loading dye. The samples were analyzed using 1% agarose gel electrophoresis in 0.5× TAE buffer. Plasmid bands were detected with a UV illuminator (Bio-Rad, Hercules, CA, USA).

[3] = molecular target: F2 (rattusin fragment, residues 12-18, dimeric hairpin loop region) (rat); test: RP-HPLC; monomeric F2 (before disulfide bonding) incubated in MIC buffer; formation of the disulfide-bonded dimer monitored by RP-HPLC

| stoichiometry N [3] | Molecule | cytoplasmic membrane depolarization (DiSC3-(5) fluorescence) [1] | SYTOX Green uptake (fluorescence intensity) (S. aureus cell membranes) | MIC [2] | MIC (Pseudomonas aeruginosa) | MIC (Salmonella typhimurium) | MIC (Escherichia coli) | MIC (bacterial strains) | MIC (Staphylococcus aureus) | MIC (Bacillus subtilis) | ONPG hydrolysis (absorbance at 405 nm) (E. coli ML-35) | MIC (MRSA CCARM 3095) | MIC (MRSA CCARM 3089) | MIC (MRSA CCARM 3090) | peptide concentration giving DNA band retardation (plasmid DNA (pHIS2)) |
| --- | --- | --- | --- | --- | --- | --- | --- | --- | --- | --- | --- | --- | --- | --- | --- |
|  | CC(C)[C@H](NC(=O)[C@H](CCCNC(=N)N)NC(=O)[C@@H](N)CCCNC(=N)N)C(=O)N[C@@H](CSSC[C@H](NC(=O)[C@@H](NC(=O)[C@H](CCCNC(=N)N)NC(=O)[C@@H](N)CCCNC(=N)N)C(C)C)C(=O)N[C@@H](CCCNC(=N)N)C(=O)N[C@@H](CC(N)=O)C(=O)N[C@H](C(N)=O)[C@@H](C)O)C(=O)N[C@@H](CCCNC(=N)N)C(=O)N[C@@H](CC(N)=O)C(=O)N[C@H](C(N)=O)[C@@H](C)O [F2] (I: H-RRVCRNT-NH2 / II: H-RRVCRNT-NH2; disulfide I:4-II:4; N-terminus assumed) | did not cause any membrane depolarization | did not show a similar increase in fluorescence intensity | 15 µg/mL (≈ 8.31 µM) | 15 µg/mL (≈ 8.31 µM) | 15 µg/mL (≈ 8.31 µM) | 15 µg/mL (≈ 8.31 µM) | 15 µg/mL (≈ 8.31 µM) | 58 µg/mL (≈ 32.1 µM) | 29 µg/mL (≈ 16.1 µM) | did not alter the absorbance | 58 µg/mL (≈ 32.1 µM) | 58 µg/mL (≈ 32.1 µM) | 116 µg/mL (≈ 64.3 µM) | 4 µM |
| 2 | F2 (rattusin fragment, residues 12-18, dimeric hairpin loop region) (peptide) |  |  |  |  |  |  |  |  |  |  |  |  |  |  |
